Results reported in ChEMBL document CHEMBL4840352 (J Med Chem, 2021).
The source made the active and inactive calls. The calls are words filed in the database; no cut-off is given here.

Columns and labels:
[1] = test system: MV4-11; experiment: Antiproliferative activity against human MV4-11 cells incubated for 48 hrs by CCK-8 assay; type: functional, cell-based; details: MV4-11, 48 h
[2] = target: Receptor-type tyrosine-protein kinase FLT3 (Homo sapiens) (UniProt P36888); experiment: Inhibition of FLT3 in human MOLM-13 cells assessed as reduction in STAT5 phosphorylation at 15 nM by Western blot analysis; type: cell-based; details: time 0-12 hrs, TDE = time-dependent effect
[3] = target: Discoidin domain-containing receptor 2 (Homo sapiens) (UniProt Q16832); experiment: Inhibition of DDR2 (unknown origin) at 1000 nM relative to control
Sequence of Discoidin domain-containing receptor 2 (Homo sapiens) (Q16832 whole entry, the tested form may be a part): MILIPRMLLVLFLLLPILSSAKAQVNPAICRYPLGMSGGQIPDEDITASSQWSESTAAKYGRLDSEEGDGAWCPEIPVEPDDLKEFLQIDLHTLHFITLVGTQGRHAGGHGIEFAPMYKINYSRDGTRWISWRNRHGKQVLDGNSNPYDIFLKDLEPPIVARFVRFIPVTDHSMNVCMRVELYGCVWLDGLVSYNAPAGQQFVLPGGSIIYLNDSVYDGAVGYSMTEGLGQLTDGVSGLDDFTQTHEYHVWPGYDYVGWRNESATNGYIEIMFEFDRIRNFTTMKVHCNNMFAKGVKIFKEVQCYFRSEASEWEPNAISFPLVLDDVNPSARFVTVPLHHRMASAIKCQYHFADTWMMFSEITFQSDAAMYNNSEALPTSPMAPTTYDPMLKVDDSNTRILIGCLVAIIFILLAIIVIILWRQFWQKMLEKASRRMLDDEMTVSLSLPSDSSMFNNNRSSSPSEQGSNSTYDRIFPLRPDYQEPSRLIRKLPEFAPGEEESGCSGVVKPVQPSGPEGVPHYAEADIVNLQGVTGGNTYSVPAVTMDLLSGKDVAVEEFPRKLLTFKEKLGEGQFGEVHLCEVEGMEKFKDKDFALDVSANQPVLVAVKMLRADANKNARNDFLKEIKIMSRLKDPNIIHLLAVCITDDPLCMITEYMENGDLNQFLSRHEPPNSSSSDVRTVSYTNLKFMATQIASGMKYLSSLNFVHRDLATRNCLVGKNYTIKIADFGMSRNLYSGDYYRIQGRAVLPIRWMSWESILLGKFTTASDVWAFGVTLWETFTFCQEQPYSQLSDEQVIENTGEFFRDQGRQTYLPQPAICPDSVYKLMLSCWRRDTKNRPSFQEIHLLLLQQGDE

[4] = target: Mast/stem cell growth factor receptor Kit (Homo sapiens) (UniProt P10721); experiment: Induction of KIT degradation in human MV4-11 cells at 0 to 25 nM after 24 hrs by Western blot analysis; type: cell-based; details: dose 0-25 nM
Sequence of Mast/stem cell growth factor receptor Kit (Homo sapiens) (P10721 whole entry): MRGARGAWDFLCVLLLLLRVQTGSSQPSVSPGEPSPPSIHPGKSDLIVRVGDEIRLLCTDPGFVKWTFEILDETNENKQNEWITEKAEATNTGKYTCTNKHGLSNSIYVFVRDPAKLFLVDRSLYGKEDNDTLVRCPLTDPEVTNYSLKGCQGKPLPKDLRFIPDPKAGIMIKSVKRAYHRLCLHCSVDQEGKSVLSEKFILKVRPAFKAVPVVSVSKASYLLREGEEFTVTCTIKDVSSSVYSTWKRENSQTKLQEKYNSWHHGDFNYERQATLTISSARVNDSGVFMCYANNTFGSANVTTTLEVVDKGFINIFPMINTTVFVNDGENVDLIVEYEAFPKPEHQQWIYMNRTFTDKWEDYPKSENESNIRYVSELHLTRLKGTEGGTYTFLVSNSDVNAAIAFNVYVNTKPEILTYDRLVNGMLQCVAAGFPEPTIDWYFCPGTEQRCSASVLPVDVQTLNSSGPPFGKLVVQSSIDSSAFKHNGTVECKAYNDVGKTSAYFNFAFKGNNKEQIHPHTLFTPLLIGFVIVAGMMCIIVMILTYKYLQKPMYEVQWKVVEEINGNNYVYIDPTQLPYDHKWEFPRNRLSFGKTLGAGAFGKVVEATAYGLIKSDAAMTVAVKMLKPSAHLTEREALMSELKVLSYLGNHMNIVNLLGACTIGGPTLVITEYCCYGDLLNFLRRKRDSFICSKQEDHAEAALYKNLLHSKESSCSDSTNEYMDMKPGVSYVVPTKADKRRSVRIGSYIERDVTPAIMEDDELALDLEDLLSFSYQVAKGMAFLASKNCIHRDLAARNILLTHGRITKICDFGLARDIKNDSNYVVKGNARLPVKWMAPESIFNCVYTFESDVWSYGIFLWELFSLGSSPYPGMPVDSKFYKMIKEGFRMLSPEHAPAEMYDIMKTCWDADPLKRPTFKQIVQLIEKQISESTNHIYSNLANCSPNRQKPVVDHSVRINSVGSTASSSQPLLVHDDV

[5] = target: Mast/stem cell growth factor receptor Kit (Homo sapiens) (UniProt P10721); experiment: Inhibition of KIT (unknown origin) at 1000 nM relative to control
[6] = target: Receptor-type tyrosine-protein kinase FLT3 (Homo sapiens) (UniProt P36888); experiment: Inhibition of FLT3 in human MV4-11 cells assessed as reduction in STAT5 phosphorylation at 15 nM by Western blot analysis; type: cell-based; details: time 0-12 hrs, TDE = time-dependent effect
[7] = target: Hepatocyte growth factor receptor (Homo sapiens) (UniProt P08581); experiment: Inhibition of C-MET (unknown origin) at 1000 nM relative to control
[8] = target: Mast/stem cell growth factor receptor Kit (Homo sapiens) (UniProt P10721); experiment: Inhibition of KIT in human MOLM-13 cells assessed as reduction in STAT3 phosphorylation at 5 to 25 nM after 24 hrs by Western blot analysis; type: cell-based; details: dose 5-25 nM
[9] = target: Serine/threonine-protein kinase Chk1 (Homo sapiens) (UniProt O14757); experiment: Inhibition of CHK1 (unknown origin) at 1000 nM relative to control
Sequence of Serine/threonine-protein kinase Chk1 (Homo sapiens) (O14757 whole entry): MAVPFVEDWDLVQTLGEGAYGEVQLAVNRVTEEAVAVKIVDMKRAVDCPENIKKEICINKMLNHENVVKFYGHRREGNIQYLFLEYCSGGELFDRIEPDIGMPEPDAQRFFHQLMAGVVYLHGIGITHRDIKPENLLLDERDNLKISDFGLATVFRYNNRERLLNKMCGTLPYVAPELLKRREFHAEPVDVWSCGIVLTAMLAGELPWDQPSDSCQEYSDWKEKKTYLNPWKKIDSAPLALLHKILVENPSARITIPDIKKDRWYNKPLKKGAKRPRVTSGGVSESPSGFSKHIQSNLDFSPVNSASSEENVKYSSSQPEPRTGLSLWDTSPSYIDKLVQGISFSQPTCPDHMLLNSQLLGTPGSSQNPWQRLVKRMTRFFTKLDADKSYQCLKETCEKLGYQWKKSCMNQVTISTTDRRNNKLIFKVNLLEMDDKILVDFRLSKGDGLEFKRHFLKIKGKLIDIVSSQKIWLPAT

[10] = test system: MV4-11; experiment: Antitumor activity against human MV4-11 cells xenografted in NOD/SCID mouse assessed as reduction in CD45-positive cells in bone marrow at 3 mg/kg/day, iv administered for 12 days by flow cytometry analysis (reference value: 32.23 %); type: functional; parameters: scale not given: the % may be the effect or the level left; details: time 12 day
[11] = test system: Receptor-type tyrosine-protein kinase FLT3 (Homo sapiens), P36888 [UNDEFINED MUTATION]; details: dose 1000.0 nM
Description: Inhibition of FLT3 ITD mutant (unknown origin) at 1000 nM relative to control

[12] = target: Platelet-derived growth factor receptor beta (Homo sapiens) (UniProt P09619); experiment: Induction of PDGFR degradation in human MV4-11 cells at 0 to 25 nM after 24 hrs by Western blot analysis; type: cell-based; details: dose 0-25 nM
[13] = target: Glycogen synthase kinase-3 alpha (Homo sapiens) (UniProt P49840); experiment: Inhibition of GSK3alpha (unknown origin) at 1000 nM relative to control
[14] = test system: MOLM-13; experiment: Reduction in intracellular ROS level in human MOLM-13 cells measured after 12 hrs by DCFH-DA probe based flow cytometry; type: functional, cell-based; details: dose 25-200 nM
[15] = Toxicity in NOD/SCID mouse xenografted with human MV4-11 cells assessed as effect on body weight at 3 mg/kg/day, iv administered for 12 hrs; type: organism-based; details: in vivo
[16] = target: Fibroblast growth factor receptor 2 (Homo sapiens) (UniProt P21802); details: dose 1000.0 nM
Sequence of Fibroblast growth factor receptor 2 (Homo sapiens) (P21802 22-821 limits assumed): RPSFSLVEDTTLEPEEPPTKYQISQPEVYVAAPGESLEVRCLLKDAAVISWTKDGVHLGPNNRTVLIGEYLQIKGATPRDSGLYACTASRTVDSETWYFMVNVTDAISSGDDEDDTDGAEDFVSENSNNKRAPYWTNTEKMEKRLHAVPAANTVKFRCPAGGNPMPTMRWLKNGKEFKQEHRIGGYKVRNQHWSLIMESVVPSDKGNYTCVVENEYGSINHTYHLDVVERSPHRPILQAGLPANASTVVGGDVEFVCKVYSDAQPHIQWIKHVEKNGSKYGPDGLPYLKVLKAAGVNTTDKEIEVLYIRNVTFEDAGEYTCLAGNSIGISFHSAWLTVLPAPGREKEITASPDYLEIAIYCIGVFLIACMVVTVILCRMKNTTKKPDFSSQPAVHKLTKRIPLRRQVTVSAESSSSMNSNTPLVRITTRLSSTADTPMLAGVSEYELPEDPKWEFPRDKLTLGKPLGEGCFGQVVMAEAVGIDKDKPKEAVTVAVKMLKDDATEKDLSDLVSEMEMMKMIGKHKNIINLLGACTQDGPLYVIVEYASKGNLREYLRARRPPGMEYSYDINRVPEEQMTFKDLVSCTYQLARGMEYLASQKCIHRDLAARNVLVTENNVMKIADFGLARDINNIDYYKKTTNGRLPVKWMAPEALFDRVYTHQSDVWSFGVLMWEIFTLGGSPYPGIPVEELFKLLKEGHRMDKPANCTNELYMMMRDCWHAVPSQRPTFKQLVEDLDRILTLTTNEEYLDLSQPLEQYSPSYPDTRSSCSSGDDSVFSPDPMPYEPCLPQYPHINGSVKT
Description: Inhibition of FGFR2 (unknown origin) at 1000 nM relative to control

[17] = target: Serine/threonine-protein kinase 4 (Homo sapiens) (UniProt Q13043); experiment: Inhibition of MST1 (unknown origin) at 1000 nM relative to control
[18] = test system: MV4-11; experiment: Induction of apoptosis in human MV4-11 cells after 48 hrs by Annexin-V/PI staining based flow cytometry; type: functional, cell-based; details: dose 1.25-10 nM
[19] = target: RAC-alpha serine/threonine-protein kinase (Homo sapiens) (UniProt P31749); experiment: Inhibition of AKT1 (unknown origin) at 1000 nM relative to control
[20] = test system: MV4-11; experiment: Induction of apoptosis in human MV4-11 cells assessed as downregulation of Bcl-2 level at 15 nM measured upto 12 hrs by Western blot analysis; type: functional, cell-based; details: time hrs <=12
[21] = target: Mast/stem cell growth factor receptor Kit (Homo sapiens) (UniProt P10721); experiment: Inhibition of KIT in human MV4-11 cells assessed as reduction in STAT3 phosphorylation at 5 to 25 nM after 24 hrs by Western blot analysis; type: cell-based; details: dose 5-25 nM
[22] = test system: MOLM-13; experiment: Antiproliferative activity against human MOLM-13 cells incubated for 48 hrs by CCK-8 assay; type: functional, cell-based; details: MOLM-13, 48 h
[23] = target: Mitogen-activated protein kinase 14 (Homo sapiens) (UniProt Q16539); details: dose 1000.0 nM
Description: Inhibition of p38alpha (unknown origin) at 1000 nM relative to control

[24] = test system: Receptor-type tyrosine-protein kinase FLT3 (Homo sapiens), P36888 [D835Y]; details: dose 1000.0 nM
Description: Inhibition of FLT3 D835Y mutant (unknown origin) at 1000 nM relative to control

[25] = target: Mast/stem cell growth factor receptor Kit (Homo sapiens) (UniProt P10721); experiment: Induction of KIT degradation in human MOLM-13 cells at 0 to 25 nM after 24 hrs by Western blot analysis; type: cell-based; details: dose 0-25 nM
[26] = test system: Receptor-type tyrosine-protein kinase FLT3 (Homo sapiens), P36888 [UNDEFINED MUTATION]; experiment: Induction of FLT3-ITD degradation in human MV4-11 cells after 24 hrs by Western blot analysis; type: cell-based
[27] = target: Tyrosine-protein kinase Lck (Homo sapiens) (UniProt P06239); details: dose 1000.0 nM
Description: Inhibition of LCK (unknown origin) at 1000 nM relative to control

[28] = target: Tyrosine-protein kinase ITK/TSK (Homo sapiens) (UniProt Q08881); details: dose 1000.0 nM
Description: Inhibition of ITK (unknown origin) at 1000 nM relative to control

[29] = target: ALK tyrosine kinase receptor (Homo sapiens) (UniProt Q9UM73); experiment: Inhibition of ALK (unknown origin) at 1000 nM relative to control
[30] = target: Platelet-derived growth factor receptor alpha (Homo sapiens) (UniProt P16234); details: dose 1000.0 nM
Description: Inhibition of PDGFRalpha (unknown origin) at 1000 nM relative to control

[31] = test system: Receptor-type tyrosine-protein kinase FLT3 (Homo sapiens), P36888 [UNDEFINED MUTATION]; experiment: Induction of FLT3-ITD degradation in human MV4-11 cells at 20 nM pretreated with pomalidomide for 2 hrs followed compound addition for 6 hrs by Western blot analysis; type: cell-based
[32] = target: Mast/stem cell growth factor receptor Kit (Homo sapiens) (UniProt P10721); experiment: Inhibition of KIT in human MOLM-13 cells assessed as reduction in PI3K phosphorylation at 5 to 25 nM after 24 hrs by Western blot analysis; type: cell-based; details: dose 5-25 nM
[33] = test system: MOLM-13; experiment: Induction of apoptosis in human MOLM-13 cells after 48 hrs by Annexin-V/PI staining based flow cytometry; type: functional, cell-based; details: dose 1.25-10 nM
[34] = target: Proto-oncogene tyrosine-protein kinase receptor Ret (Homo sapiens) (UniProt P07949); details: dose 1000.0 nM
Sequence of Proto-oncogene tyrosine-protein kinase receptor Ret (Homo sapiens) (P07949 whole entry): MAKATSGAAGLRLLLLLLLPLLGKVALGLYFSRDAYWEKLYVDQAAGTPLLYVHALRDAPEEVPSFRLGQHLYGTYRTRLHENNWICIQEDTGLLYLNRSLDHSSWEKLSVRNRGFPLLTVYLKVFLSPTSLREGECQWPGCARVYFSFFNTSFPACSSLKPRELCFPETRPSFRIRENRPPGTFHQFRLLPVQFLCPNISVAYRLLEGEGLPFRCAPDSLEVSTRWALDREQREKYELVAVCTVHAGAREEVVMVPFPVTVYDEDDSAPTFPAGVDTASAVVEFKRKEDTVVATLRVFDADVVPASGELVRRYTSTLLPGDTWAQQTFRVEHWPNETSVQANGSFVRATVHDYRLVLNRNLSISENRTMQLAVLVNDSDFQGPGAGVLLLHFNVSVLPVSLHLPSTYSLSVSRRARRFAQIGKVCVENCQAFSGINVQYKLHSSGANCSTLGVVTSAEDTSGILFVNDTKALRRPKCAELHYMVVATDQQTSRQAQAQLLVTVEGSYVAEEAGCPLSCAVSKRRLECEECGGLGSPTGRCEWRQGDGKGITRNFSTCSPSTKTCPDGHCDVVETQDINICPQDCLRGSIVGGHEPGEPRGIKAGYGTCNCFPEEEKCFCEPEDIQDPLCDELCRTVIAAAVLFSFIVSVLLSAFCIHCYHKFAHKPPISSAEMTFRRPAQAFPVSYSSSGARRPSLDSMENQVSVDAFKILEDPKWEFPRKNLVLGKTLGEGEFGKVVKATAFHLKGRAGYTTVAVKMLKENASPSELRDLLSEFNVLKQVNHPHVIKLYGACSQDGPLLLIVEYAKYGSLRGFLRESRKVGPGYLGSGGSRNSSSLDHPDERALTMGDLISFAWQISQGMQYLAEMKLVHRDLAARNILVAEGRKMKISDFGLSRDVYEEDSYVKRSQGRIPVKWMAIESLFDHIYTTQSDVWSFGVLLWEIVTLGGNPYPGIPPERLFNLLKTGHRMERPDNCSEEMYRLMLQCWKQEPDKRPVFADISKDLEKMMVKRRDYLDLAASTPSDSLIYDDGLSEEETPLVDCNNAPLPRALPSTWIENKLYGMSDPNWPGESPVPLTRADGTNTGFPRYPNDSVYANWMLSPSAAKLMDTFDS
Description: Inhibition of RET (unknown origin) at 1000 nM relative to control

[35] = target: Maternal embryonic leucine zipper kinase (Homo sapiens) (UniProt Q14680); experiment: Inhibition of MELK (unknown origin) at 1000 nM relative to control
[36] = target: Receptor-type tyrosine-protein kinase FLT3 (Homo sapiens) (UniProt P36888); experiment: Inhibition of FLT3 in human MV4-11 cells assessed as reduction in ERK phosphorylation at 15 nM by Western blot analysis; type: cell-based; details: time 0-12 hrs, TDE = time-dependent effect
[37] = target: Mitogen-activated protein kinase kinase kinase kinase 1 (Homo sapiens) (UniProt Q92918); experiment: Inhibition of HPK1 (unknown origin) at 1000 nM relative to control
Sequence of Mitogen-activated protein kinase kinase kinase kinase 1 (Homo sapiens) (Q92918 whole entry, looked up): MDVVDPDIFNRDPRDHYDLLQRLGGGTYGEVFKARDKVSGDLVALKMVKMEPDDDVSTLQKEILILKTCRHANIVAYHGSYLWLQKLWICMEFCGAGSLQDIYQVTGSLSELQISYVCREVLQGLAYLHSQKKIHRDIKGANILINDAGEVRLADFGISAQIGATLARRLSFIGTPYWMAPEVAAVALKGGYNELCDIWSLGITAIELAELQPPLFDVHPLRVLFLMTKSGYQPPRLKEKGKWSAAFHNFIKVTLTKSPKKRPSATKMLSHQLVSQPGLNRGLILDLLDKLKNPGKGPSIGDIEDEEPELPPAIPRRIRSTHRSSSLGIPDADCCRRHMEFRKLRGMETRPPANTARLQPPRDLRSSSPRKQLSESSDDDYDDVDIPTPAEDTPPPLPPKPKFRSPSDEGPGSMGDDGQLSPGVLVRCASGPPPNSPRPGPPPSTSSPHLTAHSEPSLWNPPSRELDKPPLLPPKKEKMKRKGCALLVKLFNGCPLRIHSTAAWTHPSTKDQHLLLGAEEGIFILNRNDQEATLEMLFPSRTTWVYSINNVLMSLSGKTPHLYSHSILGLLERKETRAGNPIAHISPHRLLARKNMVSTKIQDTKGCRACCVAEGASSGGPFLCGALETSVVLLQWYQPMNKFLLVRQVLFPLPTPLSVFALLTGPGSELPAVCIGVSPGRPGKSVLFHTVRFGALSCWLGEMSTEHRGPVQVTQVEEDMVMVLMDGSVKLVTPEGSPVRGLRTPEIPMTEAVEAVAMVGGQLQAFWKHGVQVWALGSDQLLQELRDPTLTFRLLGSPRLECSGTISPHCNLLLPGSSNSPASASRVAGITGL

[38] = target: Serine/threonine-protein kinase MARK1 (Homo sapiens) (UniProt Q9P0L2); experiment: Inhibition of MARK1 (unknown origin) at 1000 nM relative to control

Compound: Nc1c(-c2nc3cc(N4CCN(C(=O)CCCCCNc5cccc6c5C(=O)N(C5CCC(=O)NC5=O)C6=O)CC4)ccc3[nH]2)c(=O)[nH]c2cccc(F)c12 (stereo not drawn)
- IC50 [1]: 9.2 nM
- inhibition [2]: Tde
- inhibition [3]: 17%
- Activity [4]: Active
- inhibition [5]: 83%
- inhibition [6]: Tde
- inhibition [7]: 15%
- inhibition [8]: Active
- inhibition [9]: 26%
- Activity [10]: 5.19%
- inhibition [11]: 98%
- Activity [12]: Active
- inhibition [13]: 3%
- Activity [14]: Dose-Dependent Effect
- Activity [15]: Non-Toxic
- inhibition [16]: 34%
- inhibition [17]: 32%
- Activity [18]: Dose-Dependent Effect
- inhibition [19]: 7%
- Activity [20]: Active
- inhibition [21]: Active
- IC50 [22]: 9.5 nM
- inhibition [23]: 12%
- inhibition [24]: 95%
- Activity [25]: Active
- Activity [26]: Dose-Dependent Effect
- inhibition [27]: 16%
- inhibition [28]: 42%
- inhibition [29]: 25%
- inhibition [30]: 82%
- Activity [31]: inactive
- inhibition [32]: Active
- Activity [33]: Dose-Dependent Effect
- inhibition [34]: 39%
- inhibition [35]: 11%
- inhibition [36]: Tde
- inhibition [37]: 49%
- inhibition [38]: 17%
